Measured values reported in US20240207265A1, “TREATMENT OF CNS DISEASES WITH sGC STIMULATORS” (Tisento Therapeutics Inc., priority 2021, published 2024).

What was measured:
sGC enzyme = experiment: cGMP GloSensor cell-based assay, 384-well format (HEK293); set-up: species or system human; details: HEK293 GloSensor 40F cGMP cells, 10 μM DETA-NONOate, geometrical mean; read-out: Glo EC50
Description: Human embryonic kidney cells (HEK293) cells expressing GloSensor™ 40F cGMP (Part No: CS182801, Promega) were used to evaluate the activity of test compounds. The luminescent biosensors (engineered luciferase) that were incorporated into these cells detect cGMP formed by the compounds stimulating the sGC enzyme and emit luminescence.
cGMP GloSensor cells were maintained in Dulbecco's Modification of Eagle's Medium (DMEM) supplemented with fetal bovine serum (FBS, 10% final) and hygromycine (200 ug/ml). The day before assay, cells were plated in DMEM with 10% FBS in a 50 μL volume at a density of 1.5×10^4 cells/well in a poly-D-lysine coated 384-well flat white-bottom plate (Corning Cat No 35661). Cells were incubated overnight at 37° C. in a humidified chamber with 5% CO2. The next day, medium was removed and cells were replaced with 40 ul/well of GloSensor™, 2 mM (Promega Cat No E1291). Cells were treated for 90 minutes at 25° C. to allow the substrate to equilibrate in the cells. Test compounds and Diethylenetriamine NONOate (DETA-NONOate) was diluted to 3 mM (20×) in serum-free CO2 independent medium and serially diluted at 4× dilutions to create 5× dose curve from which 10 ul was added to the wells (x μM concentration for test compound solution and 10 μM concentration for DETA-NONOate solution; wherein x is one of the following final concentrations: 30 μM, 7.5 μM, 1.9 μM, 469 nM, 117 nM, 29.3 nM, 7.3 nM, 1.83 nM, 0.46 nM, 0.11 nM, 0.03 nM) For the kinetics studies, luminescense was measured right away for 0.2 sec per well with Envision (Perkin Elmer). For endpoint SAR screening, data were collected after 55 min incubation at room temperature.
(§1) Concentration response data were analyzed using a 4-parameter fit (log (agonist) vs. response-variable slope). The EC50 was interpolated from the curve fit and is defined as the concentration at which the compound elicits 50% of its maximal response. When the experiment was carried out multiple times for a given compound, the geometrical mean of all experiments is reported.

sGC = experiment: cGMP neuronal cell-based assay (rat primary neurons); details: rat primary hippocampal neurons, DETA-NO 10 μM or 30 μM, cGMP by LC-MS/MS; read-out: sGC Neuron EC50
Description: Rat primary neurons were isolated from fetuses of 18-day pregnant Sprague-Dawley females. The fetuses were collected in Hanks' balanced salt solution (HBSS) and brains were rapidly removed. The cerebral hippocampi were isolated and mechanically fragmented. Further tissue digestion was performed with 0.25% (wt/vol) trypsin solution in HBSS without Ca2+ and Mg2+ for 15 min at 37° C. After trypsination, cells were washed and resuspended in neurobasal medium supplemented with 0.5 mM L-glutamine, 12.5 uM glutamic acid, 2% B-27 and 100 U/mL penicillin, and 100 μg/mL streptomycin. Cells were plated at a density of 26×10^3 or 3×10^4 or 4×10^4 cells/well in a poly-D-lysine coated 384-well flat clear-bottom plate (Corning Cat No 354662). Cells were incubated 6-7 days at 37° C. in a humidified chamber with 5% CO2. Media was removed and cells were washed 1× with HBSS containing Ca2+ and Mg2+, and replaced with 40 uL HBSS containing 0.5 mM IBMX, and incubated for 15 minutes at 37° C. 10 uL of a 5× stock of test compounds with diethylenetriamine NONOate (DETA-NO) was added. Final concentration of DETA-NO was either 10 μM or 30 μM. Cells were incubated for 20 min at 37° C. Medium was removed, 50 uL of ice-cold 10% acetic acid was added, and incubated for 60 minutes at 4° C. Following centrifugation at 4° C. for 5 minutes at 1000×g to pellet cell debris, the supernatant was aspirated to a clean plate and the samples were analyzed for cGMP content. cGMP concentrations were determined from each sample using LC-MS/MS.
as §1

| EC50 (sGC enzyme) | EC50 (sGC) | SMILES |
| --- | --- | --- |
| ≤ 100 nM | ≤ 100 nM | Cc1cc(F)c(Cc2nc(-c3ncc(F)c(O)n3)cn3ccnc23)cc1F [Compound I-14, 5-fluoro-2-(8-(2,5-difluoro-4-methylbenzyl)imidazo[1,2-a]pyrazin-6-yl)pyrimidin-4-ol] |
| 100 to 1000 nM | ≤ 100 nM | Cc1cc(F)c(Cc2nc(-c3ncc(F)c(O)n3)cn3ncnc23)cc1F [Compound I-19, 5-Fluoro-2-(8-(2,5-difluoro-4-methylbenzyl)-[1,2,4]triazolo[1,5-a]pyrazin-6-yl)pyrimidin-4-ol] |
| ≤ 100 nM | ≤ 100 nM | Oc1nc(-c2cn3ccnc3c(Cc3cc(F)ccc3F)n2)ncc1F [Compound I-20, 5-fluoro-2-(8-(2,5-difluorobenzyl)imidazo[1,2-a]pyrazin-6-yl)pyrimidin-4-ol] |

Continued, compound first:

| SMILES | EC50 (sGC enzyme) | EC50 (sGC) |
| --- | --- | --- |
| Oc1nc(-c2cn3ccnc3c(Cc3ccccc3)n2)ncc1F [Compound I-2, 2-(8-Benzylimidazo[1,2-a]pyrazin-6-yl)-5-fluoropyrimidin-4-ol] | 100 to 1000 nM | 100 to 1000 nM |
| Oc1nc(-c2cn3ccnc3c(Cc3cccc(F)c3F)n2)ncc1F [Compound I-4, 2-(8-(2,3-Difluorobenzyl)imidazo[1,2-a]pyrazin-6-yl)-5-fluoropyrimidin-4-ol] | 100 to 1000 nM | ≤ 100 nM |
| Oc1nc(-c2cn3c(F)cnc3c(Cc3cc(F)ccc3F)n2)ncc1F [Compound I-5] | ≤ 100 nM | ≤ 100 nM |
| Cc1cc(F)c(Cc2nc(-c3nccc(O)n3)cn3ccnc23)cc1F [Compound I-15, 2-(8-(2,5-difluoro-4-methylbenzyl)imidazo[1,2-a]pyrazin-6-yl)pyrimidin-4-ol] | 100 to 1000 nM | 100 to 1000 nM |
| Oc1nc(-c2cn3ccnc3c(Cc3cc(F)ccc3F)n2)ncc1Cl [Compound I-16, 5-chloro-2-(8-(2,5-difluorobenzyl)imidazo[1,2-a]pyrazin-6-yl)pyrimidin-4-ol] | ≤ 100 nM | ≤ 100 nM |
| Cc1cc(F)c(Cc2nc(-c3ncc(F)c(O)n3)cn3c(F)cnc23)cc1F [Compound I-18] | ≤ 100 nM |  |
| Oc1nc(-c2cn3ccnc3c(Cc3ccccc3F)n2)ncc1F [Compound I-21] | 100 to 1000 nM | ≤ 100 nM |
| Oc1nc(-c2cn3ncnc3c(Cc3ccccc3F)n2)ncc1F [Compound I-23] | 100 to 1000 nM | ≤ 100 nM |
